According to patent US20250161289A1, “KAT6 Targeting Compounds” (Prelude Therapeutics Incorporated, priority 2023, published 2025):

Target: T1, KAT6A (Homo sapiens, UniProt Q92794)
T1 construct: expressed in transfected cells; host or cells: HeLa
Test: HiBit KAT6A Degradation Assessment
Format: cell-based
Conditions: HeLa cells with a HiBit tagged KAT6A; for Dmax: HeLa
Procedure: The degradation activity of compounds was evaluated by measuring levels of KAT6A protein using the HiBiT system. These studies were conducted in HeLa cells with a HiBit tagged KAT6A. Cells were maintained in a 37° C. incubator at 5% CO2 in EMEM or DMEM (ATCC, 30-2003) supplemented with 10% v/v FBS (Gibco, 26140-079) and 1% penicillin streptomycin. Cells were seeded in 384-well plates at a density of 2,000 cells/well. Compounds dissolved in DMSO were added in 9-point serial dilution. After 18-24 h of treatment, KAT6A levels were measured using the Nano-Glo® HiBiT Lytic Detection System (Promega catalog number N3030) per manufacturer's instructions. Luminescence signal was measured with a multimode plate reader (Envision 2105, Perkin Elmer or PHERAStar FSX, BMG Labtech). Luminescence values were normalized to background and DMSO controls to quantify KAT6A for each condition. Results were analyzed, and DC50 and Dmax values obtained using a four-parameter logistic curve fit. The results are summarized in Table 3 (18 h of treatment) and Table 4 (24 h of treatment).

T1 sequence (Q92794 whole entry): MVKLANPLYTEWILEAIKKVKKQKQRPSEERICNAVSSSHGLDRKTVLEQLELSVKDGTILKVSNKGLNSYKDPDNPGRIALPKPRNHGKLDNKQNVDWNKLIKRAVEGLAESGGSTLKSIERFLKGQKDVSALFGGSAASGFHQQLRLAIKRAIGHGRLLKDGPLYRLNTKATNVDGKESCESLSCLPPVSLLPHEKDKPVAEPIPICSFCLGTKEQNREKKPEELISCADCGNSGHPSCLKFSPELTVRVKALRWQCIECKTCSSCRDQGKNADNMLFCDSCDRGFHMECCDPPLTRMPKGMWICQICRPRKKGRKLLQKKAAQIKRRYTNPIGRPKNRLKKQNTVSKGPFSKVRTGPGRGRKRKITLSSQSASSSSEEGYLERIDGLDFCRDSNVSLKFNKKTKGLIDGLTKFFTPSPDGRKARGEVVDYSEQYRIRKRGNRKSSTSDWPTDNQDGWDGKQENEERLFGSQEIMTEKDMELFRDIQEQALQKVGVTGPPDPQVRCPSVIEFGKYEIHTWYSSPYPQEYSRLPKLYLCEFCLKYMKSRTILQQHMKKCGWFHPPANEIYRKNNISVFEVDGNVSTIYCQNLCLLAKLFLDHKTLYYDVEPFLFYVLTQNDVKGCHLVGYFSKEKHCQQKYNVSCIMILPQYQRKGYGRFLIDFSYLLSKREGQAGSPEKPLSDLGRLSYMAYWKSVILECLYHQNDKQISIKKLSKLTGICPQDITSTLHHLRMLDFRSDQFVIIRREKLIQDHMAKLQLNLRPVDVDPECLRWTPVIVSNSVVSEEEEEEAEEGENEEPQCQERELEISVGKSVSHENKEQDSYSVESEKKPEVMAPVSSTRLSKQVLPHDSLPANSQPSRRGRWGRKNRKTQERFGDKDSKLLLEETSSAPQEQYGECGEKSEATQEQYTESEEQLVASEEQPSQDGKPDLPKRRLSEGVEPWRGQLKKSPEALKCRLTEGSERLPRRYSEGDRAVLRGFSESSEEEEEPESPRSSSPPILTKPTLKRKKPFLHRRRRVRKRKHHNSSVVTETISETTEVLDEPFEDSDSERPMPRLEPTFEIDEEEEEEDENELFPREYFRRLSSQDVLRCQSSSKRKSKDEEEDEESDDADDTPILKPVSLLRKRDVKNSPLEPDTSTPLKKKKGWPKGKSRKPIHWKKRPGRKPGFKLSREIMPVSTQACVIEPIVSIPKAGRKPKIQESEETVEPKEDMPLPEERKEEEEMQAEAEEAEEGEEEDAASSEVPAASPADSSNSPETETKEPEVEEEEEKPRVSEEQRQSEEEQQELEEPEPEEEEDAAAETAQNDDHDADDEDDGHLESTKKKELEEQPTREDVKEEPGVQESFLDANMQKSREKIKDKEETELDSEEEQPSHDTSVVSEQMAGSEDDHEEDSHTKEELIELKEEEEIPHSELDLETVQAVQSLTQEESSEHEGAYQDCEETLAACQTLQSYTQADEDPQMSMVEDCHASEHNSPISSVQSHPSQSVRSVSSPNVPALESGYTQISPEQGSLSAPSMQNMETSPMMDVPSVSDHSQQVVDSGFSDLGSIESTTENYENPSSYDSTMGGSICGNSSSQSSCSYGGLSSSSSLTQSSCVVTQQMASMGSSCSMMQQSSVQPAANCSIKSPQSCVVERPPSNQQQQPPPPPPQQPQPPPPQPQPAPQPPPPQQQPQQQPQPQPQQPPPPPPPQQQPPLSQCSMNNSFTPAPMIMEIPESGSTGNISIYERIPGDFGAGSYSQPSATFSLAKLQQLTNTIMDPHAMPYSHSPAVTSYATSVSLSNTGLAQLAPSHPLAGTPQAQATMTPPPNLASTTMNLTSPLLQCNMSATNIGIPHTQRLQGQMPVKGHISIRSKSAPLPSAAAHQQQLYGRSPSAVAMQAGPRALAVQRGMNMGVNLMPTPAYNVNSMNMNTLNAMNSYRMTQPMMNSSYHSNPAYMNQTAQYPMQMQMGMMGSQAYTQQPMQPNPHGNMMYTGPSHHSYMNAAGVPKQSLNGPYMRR

DC50 (24 h of treatment) [nM]	Dmax (24 h of treatment) [%]	DC50 (18 h of treatment) [nM]	Dmax (18 h of treatment) [%]	Compound
10 to 100	50 to 75	–	–	O=C1CC[C@H](N2Cc3cc(N4CC[C@@H](CN5CCC6(CC5)CN(c5ccc(S(=O)(=O)Nc7noc8cc(Cn9cccn9)c9c(c78)OCC9)cc5)C6)C4)ccc3C2=O)C(=O)N1 [Example 15, N-(4-((1H-Pyrazol-1-yl)methyl)-2,3-dihydrobenzofuro[7,6-d]isoxazol-8-yl)-4-(7-(((S)-1-(2-((S)-2,6-dioxopiperidin-3-yl)-1-oxoisoindolin-5-yl)pyrrolidin-3-yl)methyl)-2,7-diazaspiro[3.5]nonan-2-yl)benzenesulfonamide]
–	–	10 to 100	> 75	O=C1CC[C@H](N2Cc3cc(N4CC[C@@H](CN5CC6(CCN(c7cccc(S(=O)(=O)Nc8noc9cc(Cn%10cccn%10)c%10c(c89)OCC%10)c7)CC6)C5)C4)ccc3C2=O)C(=O)N1 [Example 4, N-(4-((1H-Pyrazol-1-yl)methyl)-2,3-dihydrobenzofuro[7,6-d]isoxazol-8-yl)-3-(2-(((S)-1-(2-((S)-2,6-dioxopiperidin-3-yl)-1-oxoisoindolin-5-yl)pyrrolidin-3-yl)methyl)-2,7-diazaspiro[3.5]nonan-7-yl)benzenesulfonamide]
< 10	> 75	–	–	COc1c(N2CC3(CCN(CC4CCN(c5cccc6c5C(=O)N(C5CCC(=O)NC5=O)C6=O)CC4)CC3)C2)cccc1S(=O)(=O)Nc1noc2cc(Cn3cccn3)c3c(c12)OCC3 (stereo not shown) [Example 14, N-(4-((1H-Pyrazol-1-yl)methyl)-2,3-dihydrobenzofuro[7,6-d]isoxazol-8-yl)-3-(7-((1-(2-(2,6-dioxopiperidin-3-yl)-1,3-dioxoisoindolin-4-yl)piperidin-4-yl)methyl)-2,7-diazaspiro[3.5]nonan-2-yl)-2-methoxybenzenesulfonamide]
–	–	–	25 to 50	O=C1CC[C@H](N2Cc3cc(N4CC[C@@H](CNC5CCN(c6cccc(S(=O)(=O)Nc7noc8cc(Cn9cccn9)c9c(c78)OCC9)c6)CC5)C4)ccc3C2=O)C(=O)N1 [Example 5, N-(4-((1H-Pyrazol-1-yl)methyl)-2,3-dihydrobenzofuro[7,6-d]isoxazol-8-yl)-3-(4-((((S)-1-(2-((S)-2,6-dioxopiperidin-3-yl)-1-oxoisoindolin-5-yl)pyrrolidin-3-yl)methyl)amino)piperidin-1-yl)benzenesulfonamide]
< 10	> 75	–	–	COc1ccc(N2CC3(CCN(C[C@@H]4CCN(c5ccc6c(c5)CN([C@H]5CCC(=O)NC5=O)C6=O)C4)CC3)C2)c(OC)c1S(=O)(=O)Nc1noc2cc(Cn3cccn3)c3c(c12)OCC3 [Example 10, N-(4-((1H-Pyrazol-1-yl)methyl)-2,3-dihydrobenzofuro[7,6-d]isoxazol-8-yl)-3-(7-(((S)-1-(2-((S)-2,6-dioxopiperidin-3-yl)-1-oxoisoindolin-5-yl)pyrrolidin-3-yl)methyl)-2,7-diazaspiro[3.5]nonan-2-yl)-2,6-dimethoxybenzenesulfonamide]
< 10	> 75	–	–	COc1c(N2CC3(CCN(C[C@@H]4CCN(c5ccc6c(c5)CN([C@H]5CCC(=O)NC5=O)C6=O)C4)CC3)C2)cccc1S(=O)(=O)Nc1noc2cc(Cn3cccn3)c3c(c12)OCC3 [Example 13, N-(4-((1H-Pyrazol-1-yl)methyl)-2,3-dihydrobenzofuro[7,6-d]isoxazol-8-yl)-3-(7-(((S)-1-(2-((S)-2,6-dioxopiperidin-3-yl)-1-oxoisoindolin-5-yl)pyrrolidin-3-yl)methyl)-2,7-diazaspiro[3.5]nonan-2-yl)-2-methoxybenzenesulfonamide]
–	–	< 10	50 to 75	O=C1CCC(N2C(=O)c3ccc(N4CCC(CN5CCC(CN6CCN(c7cccc(S(=O)(=O)Nc8noc9cc(Cn%10cccn%10)c%10c(c89)OCC%10)c7)CC6)CC5)CC4)cc3C2=O)C(=O)N1 (stereo not shown) [Example 9, N-(4-((1H-Pyrazol-1-yl)methyl)-2,3-dihydrobenzofuro[7,6-d]isoxazol-8-yl)-3-(4-((1-((1-(2-(2,6-dioxopiperidin-3-yl)-1,3-dioxoisoindolin-5-yl)piperidin-4-yl)methyl)piperidin-4-yl)methyl)piperazin-1-yl)benzenesulfonamide]
10 to 100	50 to 75	< 10	> 75	O=C1CC[C@H](N2Cc3cc(N4CC[C@@H](CN5CCC6(CC5)CN(c5cccc(S(=O)(=O)Nc7noc8cc(Cn9cccn9)c9c(c78)OCC9)c5)C6)C4)ccc3C2=O)C(=O)N1 [Example 1, N-(4-((1H-Pyrazol-1-yl)methyl)-2,3-dihydrobenzofuro[7,6-d]isoxazol-8-yl)-3-(7-(((S)-1-(2-((S)-2,6-dioxopiperidin-3-yl)-1-oxoisoindolin-5-yl)pyrrolidin-3-yl)methyl)-2,7-diazaspiro[3.5]nonan-2-yl)benzenesulfonamide]
< 10	50 to 75	–	–	COc1ccc(N2CC3(CCN(CC4CCN(c5ccc6c(c5)C(=O)N(C5CCC(=O)NC5=O)C6=O)CC4)CC3)C2)c(OC)c1S(=O)(=O)Nc1noc2cc(Cn3cccn3)c3c(c12)OCC3 (stereo not shown) [Example 11, N-(4-((1H-Pyrazol-1-yl)methyl)-2,3-dihydrobenzofuro[7,6-d]isoxazol-8-yl)-3-(7-((1-(2-(2,6-dioxopiperidin-3-yl)-1,3-dioxoisoindolin-5-yl)piperidin-4-yl)methyl)-2,7-diazaspiro[3.5]nonan-2-yl)-2,6-dimethoxybenzenesulfonamide]
–	–	10 to 100	> 75	O=C1CC[C@H](N2Cc3cc(N4CC[C@@H](CN5C[C@H]6CN(c7cccc(S(=O)(=O)Nc8noc9cc(Cn%10cccn%10)c%10c(c89)OCC%10)c7)C[C@@H]6C5)C4)ccc3C2=O)C(=O)N1 [Example 2, N-(4-((1H-Pyrazol-1-yl)methyl)-2,3-dihydrobenzofuro[7,6-d]isoxazol-8-yl)-3-((3aS,6aS)-5-(((S)-1-(2-((S)-2,6-dioxopiperidin-3-yl)-1-oxoisoindolin-5-yl)pyrrolidin-3-yl)methyl)hexahydropyrrolo[3,4-c]pyrrol-2(1H)-yl)benzenesulfonamide]
–	–	< 10	> 75	O=C1CCC(N2C(=O)c3ccc(N4CCC(CN5CCC(CN6CCN(c7cccc(S(=O)(=O)Nc8noc9cc(Cn%10cccn%10)c%10c(c89)OCC%10)c7)CC6)CC5)C4)cc3C2=O)C(=O)N1 (stereo not shown) [Example 8, N-(4-((1H-Pyrazol-1-yl)methyl)-2,3-dihydrobenzofuro[7,6-d]isoxazol-8-yl)-3-(4-((1-((1-(2-(2,6-dioxopiperidin-3-yl)-1,3-dioxoisoindolin-5-yl)pyrrolidin-3-yl)methyl)piperidin-4-yl)methyl)piperazin-1-yl)benzenesulfonamide]
–	–	10 to 100	> 75	O=C1CC[C@H](N2Cc3cc(N4CC[C@@H](CN5CCC6(CC5)CCN(c5cccc(S(=O)(=O)Nc7noc8cc(Cn9cccn9)c9c(c78)OCC9)c5)CC6)C4)ccc3C2=O)C(=O)N1 [Example 3, N-(4-((1H-Pyrazol-1-yl)methyl)-2,3-dihydrobenzofuro[7,6-d]isoxazol-8-yl)-3-(9-(((S)-1-(2-((S)-2,6-dioxopiperidin-3-yl)-1-oxoisoindolin-5-yl)pyrrolidin-3-yl)methyl)-3,9-diazaspiro[5.5]undecan-3-yl)benzenesulfonamide]
10 to 100	> 75	–	–	COc1c(N2CC3(CCN(CC4CCN(c5ccc6c(c5)C(=O)N(C5CCC(=O)NC5=O)C6=O)CC4)CC3)C2)cccc1S(=O)(=O)Nc1noc2cc(Cn3cccn3)c3c(c12)OCC3 (stereo not shown) [Example 12, N-(4-((1H-Pyrazol-1-yl)methyl)-2,3-dihydrobenzofuro[7,6-d]isoxazol-8-yl)-3-(7-((1-(2-(2,6-dioxopiperidin-3-yl)-1,3-dioxoisoindolin-5-yl)piperidin-4-yl)methyl)-2,7-diazaspiro[3.5]nonan-2-yl)-2-methoxybenzenesulfonamide]
–	–	100 to 1000	50 to 75	O=C1CCC(N2C(=O)c3cccc(N4CCC(CN5CCN(c6cccc(S(=O)(=O)Nc7noc8cc(Cn9cccn9)c9c(c78)OCC9)c6)CC5)CC4)c3C2=O)C(=O)N1 (stereo not shown) [Example 7, N-(4-((1H-Pyrazol-1-yl)methyl)-2,3-dihydrobenzofuro[7,6-d]isoxazol-8-yl)-3-(4-((1-(2-(2,6-dioxopiperidin-3-yl)-1,3-dioxoisoindolin-4-yl)piperidin-4-yl)methyl)piperazin-1-yl)benzenesulfonamide]
–	–	100 to 1000	50 to 75	O=C1CCC(N2C(=O)c3ccc(N4CCC5(CC4)CC(N4CCN(c6cccc(S(=O)(=O)Nc7noc8cc(Cn9cccn9)c9c(c78)OCC9)c6)CC4)C5)cc3C2=O)C(=O)N1 (stereo not shown) [Example 6, N-(4-((1H-Pyrazol-1-yl)methyl)-2,3-dihydrobenzofuro[7,6-d]isoxazol-8-yl)-3-(4-(7-(2-(2,6-dioxopiperidin-3-yl)-1,3-dioxoisoindolin-5-yl)-7-azaspiro[3.5]nonan-2-yl)piperazin-1-yl)benzenesulfonamide]
